This passage reports MIC results from ChEMBL document CHEMBL1140489, “New biologically active epidioxysterols from Stereum hirsutum” (2007).

Each structure is given as a SMILES string. Converted amounts (≈) assume the structure as drawn.

Assay type in all cases: functional
Assay [1] has as its system Escherichia coli. Put plainly: Antibacterial activity against Escherichia coli ATCC […].
In assay [2] the test system is Staphylococcus aureus. Description: Antibacterial activity against staphylococcus aureus ATCC 25923.
For assay [3], the system named is Pseudomonas aeruginosa. Put plainly: Antibacterial activity against Pseudomonas aeruginosa ATCC 27753.
Assay [4] concerns Candida. Put plainly: Antifungal activity against Candida sp.
Assay [5] has as its system Mycobacterium tuberculosis. Description: Antibacterial activity against Mycobacterium tuberculosis H37Rv by microdilution resazurin assay. (Dilution methods test growth across graded concentrations, often in twofold steps.)

Turning to `CC(C)C/C=C/[C@@H](C)[C@H]1CC[C@@H]2[C@]1(C)CC=C1[C@]23C=C[C@]2(C[C@@H](O)CC[C@]12C)OO3`, the MIC in assay [1] was greater than 512 µg/mL; in assay [2] it was greater than 512 µg/mL; in assay [3], greater than 512 µg/mL; in assay [4], greater than 512 µg/mL; in assay [5] it was 16 µg/mL (≈ 38.8 µM).
`Cn1c([N+](=O)[O-])cnc1C#Cc1ccnc(N)n1`: the MIC was greater than 512 µg/mL in assay [1]; greater than 512 µg/mL in assay [2]; greater than 512 µg/mL in assay [3]; greater than 512 µg/mL in assay [4]; 16 µg/mL (≈ 65.5 µM) in assay [5].
For `CC[C@@H](/C=C/[C@@H](C)[C@H]1CC[C@@H]2[C@]1(C)CC[C@H]1[C@]23C=C[C@]2(C[C@@H](O)CC[C@]12C)OO3)C(C)C`, the MIC in assay [1] is greater than 512 µg/mL; in assay [2], greater than 512 µg/mL; in assay [3], greater than 512 µg/mL; in assay [4], greater than 512 µg/mL; in assay [5], 64 µg/mL (≈ 145 µM).
In the case of `CC(C)[C@@H](C)/C=C/[C@@H](C)[C@H]1CC[C@@H]2[C@]1(C)CC=C1[C@]23C=C[C@]2(C[C@@H](O)CC[C@]12C)OO3`, the MIC in assay [1] is greater than 512 µg/mL; in assay [2] it was greater than 512 µg/mL; in assay [3], greater than 512 µg/mL; in assay [4], greater than 512 µg/mL; in assay [5] it was 16 µg/mL (≈ 37.5 µM).
Take `O=C(O)c1cn(C2CC2)c2cc(N3CCNCC3)c(F)cc2c1=O` [CIPROFLOXACIN]: the MIC in assay [2] was 0.5 µg/mL (≈ 1.51 µM); in assay [3], 1 µg/mL (≈ 3.02 µM); in assay [5], 0.5 µg/mL (≈ 1.51 µM).
As for `CC(C)[C@@H](C)/C=C/[C@@H](C)[C@H]1CC[C@@H]2[C@]1(C)CC[C@H]1[C@]23C=C[C@]2(C[C@@H](O)CC[C@]12C)OO3` [ERGOSTEROL PEROXIDE], the MIC in assay [1] was greater than 512 µg/mL; in assay [2] it was greater than 512 µg/mL; in assay [3], greater than 512 µg/mL; in assay [4], greater than 512 µg/mL; in assay [5] it was 64 µg/mL (≈ 149 µM).
Take `Clc1ccc(COC(Cn2ccnc2)c2ccc(Cl)cc2Cl)c(Cl)c1` (centres undefined) [MICONAZOLE]: it took 0.25 µg/mL (≈ 0.601 µM) to inhibit growth in assay [4] (MIC).

The term MIC denotes the smallest concentration in the dilution series that meets the test's criterion for growth inhibition. Lower therefore signals a more susceptible organism.
